Experimental data from patent US9663525B2, “Pyrazolopyrimidinyl inhibitors of ubiquitin-activating enzyme” (Millennium Pharmaceuticals, Inc., priority 2012, dated 2017).

target: recombinant human UAE (Homo sapiens (Human), UniProt P22314); assay: Ubiquitin Activating Enzyme (UAE) HTRF assay, human UAE; details: not given
Sequence (P22314 whole entry): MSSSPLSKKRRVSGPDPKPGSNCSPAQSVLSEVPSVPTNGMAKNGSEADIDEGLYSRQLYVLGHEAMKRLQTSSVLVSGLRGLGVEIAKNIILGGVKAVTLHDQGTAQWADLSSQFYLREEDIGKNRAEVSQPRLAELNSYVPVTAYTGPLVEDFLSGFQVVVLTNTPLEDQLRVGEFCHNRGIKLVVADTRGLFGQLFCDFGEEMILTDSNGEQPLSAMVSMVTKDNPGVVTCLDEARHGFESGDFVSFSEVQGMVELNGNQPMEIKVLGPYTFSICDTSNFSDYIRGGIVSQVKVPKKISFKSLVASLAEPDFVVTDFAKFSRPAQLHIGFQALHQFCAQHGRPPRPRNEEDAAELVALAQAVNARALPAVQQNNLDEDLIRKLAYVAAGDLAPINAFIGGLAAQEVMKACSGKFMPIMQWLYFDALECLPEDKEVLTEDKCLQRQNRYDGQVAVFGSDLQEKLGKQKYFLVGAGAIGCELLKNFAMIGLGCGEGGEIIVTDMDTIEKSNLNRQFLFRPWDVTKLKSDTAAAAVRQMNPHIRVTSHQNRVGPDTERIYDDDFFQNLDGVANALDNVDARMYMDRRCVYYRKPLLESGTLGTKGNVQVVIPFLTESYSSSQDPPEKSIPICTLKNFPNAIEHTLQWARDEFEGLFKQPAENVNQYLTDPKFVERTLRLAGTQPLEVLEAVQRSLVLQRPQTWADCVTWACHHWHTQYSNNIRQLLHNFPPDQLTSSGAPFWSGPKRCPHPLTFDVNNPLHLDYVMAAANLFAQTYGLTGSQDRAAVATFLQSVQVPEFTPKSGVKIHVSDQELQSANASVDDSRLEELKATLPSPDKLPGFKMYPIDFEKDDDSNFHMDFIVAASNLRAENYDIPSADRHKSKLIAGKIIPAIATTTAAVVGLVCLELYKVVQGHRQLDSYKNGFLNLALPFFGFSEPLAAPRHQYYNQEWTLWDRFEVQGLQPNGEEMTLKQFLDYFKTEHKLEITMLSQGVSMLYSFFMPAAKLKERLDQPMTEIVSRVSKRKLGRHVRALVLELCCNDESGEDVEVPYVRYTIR

IC50 [µM]	Structure (SMILES)
0.01 to 0.1	NS(=O)(=O)OC[C@H]1C[C@@H](Nc2ccnc3cc(-c4c(Cl)cc(Cl)c5ccccc45)nn23)[C@H](O)[C@@H]1O [Compound I-117, (s.e.)-((1R,2R,3S,4R)-4-(2-(2,4-dichloronaphthalen-1-yl)pyrazolo[1,5-a]pyrimidin-7-ylamino)-2,3-dihydroxycyclopentyl)methyl sulfamate]
0.01 to 0.1	NS(=O)(=O)OC[C@H]1C[C@@H](Nc2ccnc3cc(-c4cccc(C(F)(F)F)n4)nn23)[C@H](O)[C@@H]1O (racemic) [Compound I-064, (rac)-((1R,2R,3S,4R)-2,3-dihydroxy-4-(2-(6-(trifluoromethyl)pyridin-2-yl)pyrazolo[1,5-a]pyrimidin-7-ylamino)cyclopentyl)methyl rel-sulfamate]
0.01 to 0.1	NS(=O)(=O)OC[C@H]1C[C@@H](Nc2ccnc3cc(-c4ccc(C(F)(F)F)s4)nn23)[C@H](O)[C@@H]1O (racemic) [Compound I-060, (rac)-((1R,2R,3S,4R)-2,3-Dihydroxy-4-((2-(5-(trifluoromethyl)thiophen-2-yl)pyrazolo[1,5-a]pyrimidin-7-yl)amino)cyclopentyl)methyl rel-sulfamate]
< 0.01	NS(=O)(=O)OC[C@H]1C[C@@H](Nc2ccnc3cc(-c4csc5ccc(F)cc45)nn23)[C@H](O)[C@@H]1O (racemic) [Compound I-081, (rac)-((1R,2R,3S,4R)-4-(2-(5-fluorobenzo[b]thiophen-3-yl)pyrazolo[1,5-a]pyrimidin-7-ylamino)-2,3-dihydroxycyclopentyl)methyl rel-sulfamate]
0.1 to 1	COc1ccc(-c2cc3nc(Cl)cc(N[C@@H]4C[C@H](COS(N)(=O)=O)[C@@H](O)[C@H]4O)n3n2)cc1 (racemic) [Compound I-014, (rac)-[(1R,2R,3S,4R)-4-{[5-chloro-2-(4-methoxyphenyl)pyrazolo[1,5-a]-pyrimidin-7-yl]amino}-2,3-dihydroxycyclopentyl]methyl rel-sulfamate]
< 0.01	Cn1cc(-c2cccc(-c3cc4nccc(N[C@@H]5C[C@H](COS(N)(=O)=O)[C@@H](O)[C@H]5O)n4n3)c2)cn1 (racemic) [Compound I-122, (rac)-[(1R,2R,3S,4R)-2,3-dihydroxy-4-({2-[3-(1-methyl-1H-pyrazol-4-yl)phenyl]pyrazolo[1,5-a]pyrimidin-7-yl}amino)cyclopentyl]methyl rel-sulfamate]
< 0.01	NS(=O)(=O)OC[C@H]1C[C@@H](Nc2ccnc3cc(-c4cccc5ccsc45)nn23)[C@H](O)[C@@H]1O (racemic) [Compound I-045, (rac)-((1R,2R,3S,4R)-4-((2-(Benzo[b]thiophen-7-yl)pyrazolo[1,5-a]pyrimidin-7-yl)amino)-2,3-dihydroxycyclopentyl)methyl rel-sulfamate]
< 0.01	NS(=O)(=O)OC[C@H]1C[C@@H](Nc2ccnc3cc(-c4ccc5ncccc5c4)nn23)[C@H](O)[C@@H]1O (racemic) [Compound I-034, (rac)-((1R,2R,3S,4R)-2,3-dihydroxy-4-(2-(quinolin-6-yl)pyrazolo[1,5-a]pyrimidin-7-ylamino)cyclopentyl)methyl rel-sulfamate]
0.01 to 0.1	NS(=O)(=O)OC[C@H]1C[C@@H](Nc2ccnc3cc(-c4cnc5ccccc5c4)nn23)[C@H](O)[C@@H]1O (racemic) [Compound I-025, (rac)-((1R,2R,3S,4R)-2,3-dihydroxy-4-(2-(quinolin-3-yl)pyrazolo[1,5-a]pyrimidin-7-ylamino)cyclopentyl)methyl rel-sulfamate]
< 0.01	NS(=O)(=O)OC[C@H]1C[C@@H](Nc2ccnc3cc(-c4cccc(N5CCCCC5)c4)nn23)[C@H](O)[C@@H]1O (racemic) [Compound I-077, (rac)-((1R,2R,3S,4R)-2,3-dihydroxy-4-(2-(3-(piperidin-1-yl)phenyl)pyrazolo[1,5-a]pyrimidin-7-ylamino)cyclopentyl)methyl rel-sulfamate]
< 0.01	NS(=O)(=O)OC[C@H]1C[C@@H](Nc2ccnc3cc(-c4cccc5cnccc45)nn23)[C@H](O)[C@@H]1O (racemic) [Compound I-027, (rac)-((1R,2R,3S,4R)-2,3-dihydroxy-4-(2-(isoquinolin-5-yl)pyrazolo[1,5-a]pyrimidin-7-ylamino)cyclopentyl)methyl rel-sulfamate]
< 0.01	CC(CO)(CCl)c1cccc(-c2cc3nccc(N[C@@H]4C[C@H](COS(N)(=O)=O)[C@@H](O)[C@H]4O)n3n2)c1 (relative stereo) [Compound I-123, (rac)-{(1R,2R,3S,4R)-4-[(2-{3-[2-chloro-1-(hydroxymethyl)-1-methylethyl]phenyl}pyrazolo[1,5-a]pyrimidin-7-yl)amino]-2,3-dihydroxycyclopentyl}methyl rel-sulfamate]
< 0.01	NS(=O)(=O)OC[C@H]1C[C@@H](Nc2ccnc3cc(-c4ccc5ccccc5c4)nn23)[C@H](O)[C@@H]1O (racemic) [Compound I-016, (rac)-((1R,2R,3S,4R)-2,3-dihydroxy-4-(2-(naphthalen-2-yl)pyrazolo[1,5-a]pyrimidin-7-ylamino)cyclopentyl)methyl rel-sulfamate]
< 0.01	NS(=O)(=O)OC[C@H]1C[C@@H](Nc2ccnc3cc(-c4csc5ccccc45)nn23)[C@H](O)[C@@H]1O (racemic) [Compound I-022, (rac)-((1R,2R,3S,4R)-4-(2-(benzo[b]thiophen-3-yl)pyrazolo[1,5-a]pyrimidin-7-ylamino)-2,3-dihydroxycyclopentyl)methyl rel-sulfamate]
< 0.01	NS(=O)(=O)OC[C@H]1C[C@@H](Nc2ccnc3cc(-c4ccc5oc6ccccc6c5c4)nn23)[C@H](O)[C@@H]1O (racemic) [Compound I-019, (rac)-((1R,2R,3S,4R)-4-(2-(dibenzo[b,d]furan-2-yl)pyrazolo[1,5-a]pyrimidin-7-ylamino)-2,3-dihydroxycyclopentyl)methyl rel-sulfamate]
< 0.01	NS(=O)(=O)OC[C@H]1C[C@@H](Nc2ccnc3cc(-c4cccc5c4oc4ccccc45)nn23)[C@H](O)[C@@H]1O (racemic) [Compound I-010, (rac)-((1R,2R,3S,4R)-4-(2-(dibenzo[b,d]furan-4-yl)pyrazolo[1,5-a]pyrimidin-7-ylamino)-2,3-dihydroxycyclopentyl)methyl rel-sulfamate]
< 0.01	NS(=O)(=O)OC[C@H]1C[C@@H](Nc2ccnc3cc(-c4ccc5c(c4)[nH]c4ccccc45)nn23)[C@H](O)[C@@H]1O (racemic) [Compound I-062, (rac)-[(1R,2R,3S,4R)-4-{[2-(9H-carbazol-2-yl)pyrazolo[1,5-a]pyrimidin-7-yl]amino}-2,3-dihydroxycyclopentyl]methyl rel-sulfamate]
< 0.01	NS(=O)(=O)OC[C@H]1C[C@@H](Nc2ccnc3cc(-c4cc(Cl)ccc4OC(F)(F)F)nn23)[C@H](O)[C@@H]1O (racemic) [Compound I-057, (rac)-((1R,2R,3S,4R)-4-(2-(5-chloro-2-(trifluoromethoxy)phenyl)pyrazolo[1,5-a]pyrimidin-7-ylamino)-2,3-dihydroxycyclopentyl)methyl rel-sulfamate]
< 0.01	NS(=O)(=O)OC[C@H]1C[C@@H](Nc2ccnc3cc(-c4cncc(-c5ccccc5)n4)nn23)[C@H](O)[C@@H]1O (racemic) [Compound I-121, (rac)-((1R,2R,3S,4R)-2,3-dihydroxy-4-{[2-(6-phenylpyrazin-2-yl)pyrazolo[1,5-a]pyrimidin-7-yl]amino}cyclopentyl)methyl rel-sulfamate]
0.01 to 0.1	NS(=O)(=O)OC[C@H]1C[C@@H](Nc2ccnc3cc(-c4ccc5[nH]ccc5c4)nn23)[C@H](O)[C@@H]1O (racemic) [Compound I-074, (rac)-[(1R,2R,3S,4R)-2,3-dihydroxy-4-{[2-(1H-indol-5-yl)pyrazolo[1,5-a]pyrimidin-7-yl]amino}cyclopentyl]methyl rel-sulfamate]
< 0.01	NS(=O)(=O)OC[C@H]1C[C@@H](Nc2ccnc3cc(-c4cccc(OC(F)F)c4)nn23)[C@H](O)[C@@H]1O (racemic) [Compound I-050, (rac)-((1R,2R,3S,4R)-4-((2-(3-(Difluoromethoxy)phenyl)pyrazolo[1,5-a-]pyrimidin-7-yl)amino)-2,3-dihydroxycyclopentyl)methyl rel-sulfamate]

same assay, conditions: 0.111 μM compound; human UAE

% inhibition @0.111 μM [%]	Structure (SMILES)
100	COc1ccc(C(C)(C)C)cc1-c1cc2nccc(N[C@@H]3C[C@H](COS(N)(=O)=O)[C@@H](O)[C@H]3O)n2n1 (racemic) [Compound I-063, (rac)-((1R,2R,3S,4R)-4-{[2-(5-tert-butyl-2-methoxyphenyl)pyrazolo[1,5-a]pyrimidin-7-yl]amino}-2,3-dihydroxycyclopentyl)methyl rel-sulfamate]

same assay, conditions: human UAE

IC50 [µM]	Structure (SMILES)
< 0.01	NS(=O)(=O)OC[C@H]1C[C@@H](Nc2ccnc3cc(-c4ccc(OC(F)F)c5ccccc45)nn23)[C@H](O)[C@@H]1O [Compound I-112, (s.e.)-((1R,2R,3S,4R)-4-(2-(4-(difluoromethoxy)naphthalen-1-yl)pyrazolo[1,5-a]pyrimidin-7-ylamino)-2,3-dihydroxycyclopentyl)methyl sulfamate]
< 0.01	NS(=O)(=O)OC[C@H]1C[C@@H](Nc2ccnc3cc(-c4cccc5c4oc4ccccc45)nn23)[C@H](O)[C@@H]1O [Compound I-103, (s.e.)-((1R,2R,3S,4R)-4-(2-(dibenzo[b,d]furan-4-yl)pyrazolo[1,5-a]pyrimidin-7-ylamino)-2,3-dihydroxycyclopentyl)methyl sulfamate]
< 0.01	COc1ccc(-c2cc3nccc(N[C@@H]4C[C@H](COS(N)(=O)=O)[C@@H](O)[C@H]4O)n3n2)c2ccccc12 [Compound I-106, (s.e.)-((1R,2R,3S,4R)-2,3-dihydroxy-4-(2-(4-methoxynaphthalen-1-yl)pyrazolo[1,5-a]pyrimidin-7-ylamino)cyclopentyl)methyl sulfamate]
< 0.01	COc1ccc(SC(F)(F)F)cc1-c1cc2nccc(N[C@@H]3C[C@H](COS(N)(=O)=O)[C@@H](O)[C@H]3O)n2n1 [Compound I-120, (s.e.)-((1R,2R,3S,4R)-2,3-dihydroxy-4-(2-(2-methoxy-5-(trifluoromethylthio)-phenyl)pyrazolo[1,5-a]pyrimidin-7-ylamino)cyclopentyl)methyl sulfamate]
